# pIC50: −log10 of the molar value.
# How the values were obtained:
# human G9a enzyme = human G9a enzyme (Homo sapiens (Human), UniProt Q96KQ7); experiment: G9a enzyme activity assay (TR-FRET); format: biochemical; settings: 1 hour at room temperature
# Protocol: G9a Enzyme Activity Assay
# The biochemical assay to measure G9a enzyme activity relies on time-resolved fluorescence energy transfer (TR-FRET) between europium cryptate (donor) and XL665 (acceptor). TR-FRET is observed when biotinylated histone monomethyl-H3K9 peptide is incubated with cryptate-labeled anti-dimethyl-histone H3K9 antibody (CisBio Cat#61KB2KAE) and streptavidin XL665 (CisBio Cat#610SAXLA), after enzymatic reaction of G9a.
# The human G9a enzyme expressed in a baculovirus infected Sf9 cell expression system was obtained from BPS Biosciences (Cat. #51001). Enzyme activity assay was carried out in a white 384-well plate in a final volume of 20 μl, as follow: • 4 μl of vehicle or studied compound 2.5× concentrated prepared in assay buffer (50 mM Tris-HCl, 10 mM NaCl, 4 mM DTT, 0.01% Tween-20 pH9). Final percentage of DMSO was 0.5%. • 2 μl of 1 nM G9a enzyme diluted in assay buffer. Final concentration was 0.2 nM. • Start the reaction by adding 4 μl of substrate mixture containing 20 μM S-adenosylmethionine and 40 nM biotinylated histone monomethyl-H3K9 peptide. • Reaction was carried out during 1 hour at room temperature. • Enzyme activity was stopped by adding 5 μl of cryptate-labeled anti-dimethyl-histone H3K9 antibody. Final concentration 150 nM. • Then, add 5 μl of streptavidin XL665 beads. Final concentration of 16 μM. • Read the plate after 1 hour of incubation at room temperature.
# (§1) For each well, fluorescence was measured at 620 nm and 665 nm. A ratio (665 nm/620 nm) was then calculated in order to minimize medium interferences. Positive control was obtained in the presence of the vehicle of the compounds. Negative control was obtained in the absence of G9a enzyme activity. Calculated IC50 values were determined using GraphPrism using 4-parameters inhibition curve.
# human DNMT1 = human DNMT1 (Homo sapiens (Human), UniProt P26358); experiment: DNMT1 enzyme activity assay (TR-FRET, EPIgeneous methyltransferase assay); format: biochemical; settings: 15 minutes at 37° C.
# Sequence of human DNMT1 (P26358 whole entry): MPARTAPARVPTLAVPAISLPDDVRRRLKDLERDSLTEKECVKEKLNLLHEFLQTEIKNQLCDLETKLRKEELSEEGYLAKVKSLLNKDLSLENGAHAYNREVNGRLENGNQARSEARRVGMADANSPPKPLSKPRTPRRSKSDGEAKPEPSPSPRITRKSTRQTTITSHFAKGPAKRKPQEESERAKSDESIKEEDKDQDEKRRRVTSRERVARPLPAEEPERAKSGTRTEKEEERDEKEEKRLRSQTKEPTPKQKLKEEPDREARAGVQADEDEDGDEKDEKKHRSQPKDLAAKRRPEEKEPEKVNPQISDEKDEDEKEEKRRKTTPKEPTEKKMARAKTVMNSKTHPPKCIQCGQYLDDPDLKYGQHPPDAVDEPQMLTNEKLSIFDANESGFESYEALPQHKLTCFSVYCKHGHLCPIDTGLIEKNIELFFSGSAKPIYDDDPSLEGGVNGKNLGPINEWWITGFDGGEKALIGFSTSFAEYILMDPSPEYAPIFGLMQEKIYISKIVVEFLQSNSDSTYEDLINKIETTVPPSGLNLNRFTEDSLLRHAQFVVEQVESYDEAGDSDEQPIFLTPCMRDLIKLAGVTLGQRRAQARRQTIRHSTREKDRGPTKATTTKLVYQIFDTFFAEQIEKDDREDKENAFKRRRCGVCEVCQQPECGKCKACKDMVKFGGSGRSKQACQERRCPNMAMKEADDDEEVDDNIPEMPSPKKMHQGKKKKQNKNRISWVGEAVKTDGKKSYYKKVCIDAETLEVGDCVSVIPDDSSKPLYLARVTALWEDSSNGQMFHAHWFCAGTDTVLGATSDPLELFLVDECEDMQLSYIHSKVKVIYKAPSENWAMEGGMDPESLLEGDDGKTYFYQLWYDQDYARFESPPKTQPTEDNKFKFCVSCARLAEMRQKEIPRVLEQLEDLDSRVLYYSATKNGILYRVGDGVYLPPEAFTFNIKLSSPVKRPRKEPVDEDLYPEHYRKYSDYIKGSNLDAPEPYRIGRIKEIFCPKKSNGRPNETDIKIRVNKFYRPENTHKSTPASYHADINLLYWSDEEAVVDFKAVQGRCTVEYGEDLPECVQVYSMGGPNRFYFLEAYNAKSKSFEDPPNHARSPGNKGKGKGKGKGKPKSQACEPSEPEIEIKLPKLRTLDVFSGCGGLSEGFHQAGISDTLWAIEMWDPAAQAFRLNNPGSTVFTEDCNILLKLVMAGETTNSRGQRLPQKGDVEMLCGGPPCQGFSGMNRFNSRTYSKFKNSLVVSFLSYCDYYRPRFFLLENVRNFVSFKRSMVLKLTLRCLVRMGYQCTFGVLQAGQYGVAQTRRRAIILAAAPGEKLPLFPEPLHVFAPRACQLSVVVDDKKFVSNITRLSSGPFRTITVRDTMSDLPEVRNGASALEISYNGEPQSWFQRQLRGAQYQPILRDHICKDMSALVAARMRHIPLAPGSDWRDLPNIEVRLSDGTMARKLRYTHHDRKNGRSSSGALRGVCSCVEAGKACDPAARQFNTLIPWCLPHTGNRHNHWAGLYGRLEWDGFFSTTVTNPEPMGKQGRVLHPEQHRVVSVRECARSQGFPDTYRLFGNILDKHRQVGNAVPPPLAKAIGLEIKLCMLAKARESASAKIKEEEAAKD
# Protocol: DNMT1 Enzyme Activity Assay
# The biochemical assay to measure DNMT1 enzyme activity relies on time-resolved fluorescence energy transfer (TR-FRET) between lumi4-Tb (donor) and d2 (acceptor) using the EPlgeneous methyltransferase assay (CisBio Cat#62SAHPEB). TR-FRET is observed when antibody specific to S-adenosylhomocysteine labeled with Lumi4-Tb is incubated with d2-labeled S-adenosylhomocysteine. TR-FRET signal is inversely proportional to the concentration of SAH, product of DNMT1 enzyme activity, in the sample. The human DNMT1 was obtained from Reaction Biology Corp. (Cat# DMT-21-124).
# Enzyme activity assay was carried out in a white 384-well plate in a final volume of 20 μl, as follow: • 4 μl of vehicle or studied compound 2.5× concentrated prepared in assay buffer (50 mM Tris-HCl, 1 mM EDTA, 1 mM DTT, 0.1% Triton X-100, 5% glycerol pH 7.5). Final percentage of DMSO was 0.5%. • 2 μl of […] DNMT1 enzyme diluted in assay buffer. Final concentration was 20 nM. • Start the reaction by adding 4 μl of substrate mixture containing 1 μM S-adenosylmethionine and 1 μM poly-deoxy inosine poly-deoxy cytosine (pdI-pdC) DNA. • Reaction was carried out during 15 minutes at 37° C. • Enzyme activity was stopped by adding 2 μl of buffer one of the EPIgeneous methyltransferase assay. • After 10 minutes at room temperature, it was added 4 μl of antibody specific to S-adenosylhomocysteine labeled with Lumi4-Tb 50× diluted in buffer two of the EPIgeneous methyltransferase assay. • Add 4 μl of d2-labeled S-adenosylhomocysteine 31× diluted in buffer two of the EPIgeneous methyltransferase assay. • Read the plate after 1 hour of incubation at room temperature.
# as §1
# [1] = system: CEMO-1 cells (acute lymphocytic leukemia, ALL); experiment: Cell proliferation assay (CellTiter 96 Aqueous One), CEMO-1; format: cell-based; settings: CEMO-1 (ALL), 48 hours of treatment
# Protocol: (§2) Cell proliferation was analyzed after 48 hours of in vitro treatment using the CellTiter 96 Aqueous One Solution Cell Proliferation Assay (Promega, Madison, W). This is a colorimetric method for determining the number of viable cells in proliferation.
# (§3) For the assay, suspension cells were cultured by triplicate at a density of 1×10^6 cells/ml in 96-well plates (100.000 cells/well, 100 μl/well), except for OCI-Ly3 and OCI-Ly10 cell lines which were cultured at a density of 0.5×10^6 cells/ml (50,000 cells/well, 100 μl/well) and for HepG2, Hep3B and PLC/PRF/5 cell lines which were cultured at a density of 3000 cells/well, 100 μl/well). Adherent cells were obtained from 80-90% confluent flasks and 100 μl of cells were seeded at a density of 5000 cells/well in 96-well plates by triplicate. Before addition of the compounds, adherent cells were allowed to attach to the bottom of the wells for 12 hours. In all cases, only the 60 inner wells were used to avoid any border effects.
# (§4) After 48 hours of treatment, plates with suspension cells were centrifuged at 800 g for 10 minutes and medium was removed. The plates with adherent cells were flicked to remove medium. Then, cells were incubated with 100 μl/well of medium and 20 μl/well of CellTiter 96 Aqueous One Solution reagent. After 1-3 hours of incubation at 37° C., absorbance was measured at 490 nm in a 96-well plate reader. The background absorbance was measured in wells with only cell line medium and solution reagent. Data was calculated as a percentage of total absorbance of treated cell/absorbance of non treated cells.
# (§5) These cancer cell lines and primary cultures correspond to acute lymphocytic leukemia (ALL), CEMO-1, to activated B-cell-like diffuse large B-cell lymphoma (ABC-DLBCL), OCI-Ly3 and OCI-Ly10 and to hepatocellular carcinoma cells (HCC), HepG2, Hep3B and PLC/PRF/5.
# [2] = system: Hep3B cells (hepatocellular carcinoma); experiment: Cell proliferation assay (CellTiter 96 Aqueous One), Hep3B; format: cell-based; settings: Homo sapiens; Hep3B (HCC), 48 hours of treatment
# Protocol: as §2, §3, §4, §5
# [3] = system: HepG2 cells (hepatocellular carcinoma); experiment: Cell proliferation assay (CellTiter 96 Aqueous One), HepG2; format: cell-based; settings: Homo sapiens; HepG2 (HCC), 48 hours of treatment
# Protocol: as §2, §3, §4, §5
# Sequence of human G9a enzyme (Q96KQ7 whole entry): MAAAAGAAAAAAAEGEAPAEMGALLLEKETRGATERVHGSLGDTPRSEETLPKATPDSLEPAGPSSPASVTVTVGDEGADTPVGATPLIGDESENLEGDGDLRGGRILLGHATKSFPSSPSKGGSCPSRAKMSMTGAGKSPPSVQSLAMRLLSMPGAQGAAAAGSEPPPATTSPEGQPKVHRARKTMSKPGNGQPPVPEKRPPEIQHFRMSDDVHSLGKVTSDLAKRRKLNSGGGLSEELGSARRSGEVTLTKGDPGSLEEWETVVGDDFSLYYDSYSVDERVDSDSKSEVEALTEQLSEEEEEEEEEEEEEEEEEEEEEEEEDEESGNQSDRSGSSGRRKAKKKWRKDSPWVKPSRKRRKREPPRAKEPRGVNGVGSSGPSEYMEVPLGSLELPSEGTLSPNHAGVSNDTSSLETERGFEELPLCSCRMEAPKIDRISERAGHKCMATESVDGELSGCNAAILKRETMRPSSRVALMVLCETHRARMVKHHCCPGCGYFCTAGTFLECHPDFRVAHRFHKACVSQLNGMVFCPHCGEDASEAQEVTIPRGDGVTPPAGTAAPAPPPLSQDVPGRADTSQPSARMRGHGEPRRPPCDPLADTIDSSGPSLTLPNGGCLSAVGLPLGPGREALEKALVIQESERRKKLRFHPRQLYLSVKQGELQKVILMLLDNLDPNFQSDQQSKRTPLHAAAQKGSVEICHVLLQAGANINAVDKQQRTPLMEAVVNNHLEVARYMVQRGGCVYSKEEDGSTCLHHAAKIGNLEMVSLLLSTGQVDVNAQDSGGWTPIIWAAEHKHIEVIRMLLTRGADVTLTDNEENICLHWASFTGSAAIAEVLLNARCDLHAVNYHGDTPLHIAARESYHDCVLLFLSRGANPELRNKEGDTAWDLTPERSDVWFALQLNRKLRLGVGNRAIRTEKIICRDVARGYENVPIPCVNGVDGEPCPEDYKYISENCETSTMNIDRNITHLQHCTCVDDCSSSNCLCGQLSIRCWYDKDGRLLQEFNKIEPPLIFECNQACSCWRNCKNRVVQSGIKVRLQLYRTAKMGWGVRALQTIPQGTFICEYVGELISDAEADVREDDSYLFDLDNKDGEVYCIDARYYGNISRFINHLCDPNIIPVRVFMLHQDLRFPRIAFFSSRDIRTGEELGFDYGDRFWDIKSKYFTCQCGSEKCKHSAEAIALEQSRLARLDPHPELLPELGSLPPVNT
SMILES,pIC50 (human G9a enzyme),pIC50 (human DNMT1),GI50 [1],GI50 [2],GI50 [3]
"COc1cc2c3c(c(-c4cc(C)oc4C)nc2cc1OCCCN1CCCC1)CCC(CC1CCN(C)CC1)N3 (stereo not drawn) [Compound 2-13, 9-methoxy-5-(2,5-dimethyl-3-furyl)-2-[(1-methyl-4-piperidyl)methyl]-8-(3-pyrrolidin-1-ylpropoxy)-1,2,3,4-tetrahydrobenzo[h][1,6]naphthyridine]",> 7.00,5.00 to 6.00,–,–,–
"COc1cc2c3c(c(-c4ccc(C)o4)nc2cc1OCCCN1CCCC1)CC[C@H](CC1CCN(C)CC1)N3 (single isomer, unassigned) [Compound 2-09]",> 7.00,6.00 to 6.30,–,–,–
"COc1cc2c(cc1OCCCN1CCCC1)nc(-c1ccc(C)o1)c1c(=O)n(CC3CCN(C)CC3)[nH]c12 [Compound 4-04, 8-methoxy-4-(5-methyl-2-furyl)-2-[(1-methyl-4-piperidyl)methyl]-7-(3-pyrrolidin-1-ylpropoxy)-1H-pyrazolo[4,3-c]quinolin-3-one]",< 5.00,5.00 to 6.00,–,–,–
"COc1cc2c3c(c(-c4ccc(C)o4)nc2cc1OCCCN1CCCC1)CCC(CC1CCN(C2CCCCC2)CC1)N3 (stereo not drawn) [Compound 2-12, 2-[(1-cyclohexyl-4-piperidyl)methyl]-9-methoxy-5-(5-methyl-2-furyl)-8-(3-pyrrolidin-1-ylpropoxy)-1,2,3,4-tetrahydrobenzo[h][1,6]naphthyridine]",> 7.00,6.00 to 6.30,100 to 1000 nM,100 to 1000 nM,100 to 1000 nM
"COc1cc2c3c(c(-c4ccc(C)o4)nc2cc1OCCCN1CCCC1)CCCN3 [Compound 2-03, 9-methoxy-5-(5-methyl-2-furyl)-8-(3-pyrrolidin-1-ylpropoxy)-1,2,3,4-tetrahydrobenzo[h][1,6]naphthyridine]",> 7.00,5.00 to 6.00,1000 to 10000 nM,–,–
"COc1cc2c3c(c(-c4ccc(C)o4)nc2cc1OCCCN1CCCC1)CCC(CC1CCN(C(C)=O)CC1)N3 (stereo not drawn) [Compound 2-11, 1-[4-[[9-methoxy-5-(5-methyl-2-furyl)-8-(3-pyrrolidin-1-ylpropoxy)-1,2,3,4-tetrahydrobenzo[h][1,6]naphthyridin-2-yl]methyl]-1-piperidyl]ethanone]",> 7.00,5.00 to 6.00,–,–,–
"COc1ccc2c3c(c(-c4ccc(C)o4)nc2c1)CCCN3 [Compound 2-01, 8-methoxy-5-(5-methyl-2-furyl)-1,2,3,4-tetrahydrobenzo[h][1,6]naphthyridine]",< 5.00,5.00 to 6.00,–,–,–
"COc1cc2c3c(c(-c4ccc(C)o4)nc2cc1OCCCN1CCCC1)CCC(CC1CCNCC1)N3 (stereo not drawn) [Compound 2-05, 9-methoxy-5-(5-methyl-2-furyl)-2-(4-piperidylmethyl)-8-(3-pyrrolidin-1-ylpropoxy)-1,2,3,4-tetrahydrobenzo[h][1,6]naphthyridine]",> 7.00,6.00 to 6.30,–,–,–
"COc1cc2c(cc1OCCCN1CCCC1)nc(-c1ccc(C)o1)c1c(=O)n(CC3CCN(C)CC3)n(CC3CCN(C)CC3)c12 [Compound 4-05, 8-methoxy-4-(5-methyl-2-furyl)-1,2-bis[(1-methyl-4-piperidyl)methyl]-7-(3-pyrrolidin-1-ylpropoxy)pyrazolo[4,3-c]quinolin-3-one]",< 5.00,5.00 to 6.00,–,–,–
"COc1cc2c(cc1OCCCN1CCCC1)nc(-c1ccc(C)o1)c1c(=O)n(C3CCN(C)CC3)[nH]c12 [Compound 4-03, 8-methoxy-4-(5-methyl-2-furyl)-2-(1-methyl-4-piperidyl)-7-(3-pyrrolidin-1-ylpropoxy)-1H-pyrazolo[4,3-c]quinolin-3-one]",< 5.00,5.00 to 6.00,–,–,–
"COc1cc2c(cc1OCCCN1CCCC1)nc(-c1cc(C)oc1C)c1ccc(CC3CCN(C)CC3)nc12 [Compound 3-04, 9-methoxy-5-(2,5-dimethyl-3-furyl)-2-[(1-methyl-4-piperidyl)methyl]-8-(3-pyrrolidin-1-ylpropoxy)benzo[h][1,6-]naphthyridine]",6.30 to 7.00,< 5.00,–,–,–
COc1cc2c(cc1OCCCN1CCCC1)nc(-c1ccccc1)c1cc(CC3CCN(C)CC3)[nH]c12 [Compound 1-05],6.30 to 7.00,6.00 to 6.30,–,–,–
COc1cc2c(cc1OCCCN1CCCC1)nc(-c1cc(C)oc1C)c1cc(CC3CCN(C)CC3)[nH]c12 [Compound 1-06],6.00 to 6.30,5.00 to 6.00,–,–,–
"Cc1ccc(-c2nc3cc(OCCCN4CCCC4)ccc3c3c2CCCN3)o1 [Compound 2-02, 5-(5-methyl-2-furyl)-8-(3-pyrrolidin-1-ylpropoxy)-1,2,3,4-tetrahydrobenzo[h][1,6]naphthyridine]",5.00 to 6.00,6.00 to 6.30,–,–,–
"COc1cc2c3c(c(-c4ccc(C)o4)nc2cc1OCCCN1CCCC1)CC[C@@H](CC1CCN(C)CC1)N3 (single isomer, unassigned) [Compound 2-10]",> 7.00,6.00 to 6.30,–,–,–
"COc1cc2c3c(c(-c4ccc(C)o4)nc2cc1OCCCN1CCCC1)CCCN3CCCN1CCCC1 [Compound 2-04, 9-methoxy-5-(5-methyl-2-furyl)-8-(3-pyrrolidin-1-ylpropoxy)-1-(3-pyrrolidin-1-ylpropyl)-3,4-dihydro-2H-benzo[h][1,6]naphthyridine]",< 5.00,6.00 to 6.30,–,–,–
"COc1cc2c(cc1OCCCN1CCCC1)nc(-c1ccc(C)o1)c1cccnc12 [Compound 3-01, 9-methoxy-5-(5-methyl-2-furyl)-8-(3-pyrrolidin-1-ylpropoxy)benzo[h]-[1,6]naphthyridine]",5.00 to 6.00,5.00 to 6.00,–,–,–
"COc1cc2c(cc1OCCCN1CCCC1)nc(-c1ccc(C)o1)c1ccc(CC3CCN(C)CC3)nc12 [Compound 3-03, 9-methoxy-5-(5-methyl-2-furyl)-2-[(1-methyl-4-piperidyl)methyl]-8-(3-pyrrolidin-1-ylpropoxy)benzo[h][1,6]naphthyridine]",> 7.00,5.00 to 6.00,–,–,–
"COc1cc2c(cc1OCCCN1CCCC1)nc(-c1ccc(C)o1)c1ccc(CC3CCNCC3)nc12 [Compound 3-02, 9-methoxy-5-(5-methyl-2-furyl)-2-(4-piperidylmethyl)-8-(3-pyrrolidin-1-ylpropoxy)benzo[h][1,6]naphthyridine]",6.30 to 7.00,6.00 to 6.30,–,–,–
